Experimental findings from US9938273B2 (Plexxikon Inc., priority 2015, dated 2018) are described below.

The structures appear in SMILES notation.

By IC50 is commonly meant the concentration needed to halve the response being measured.

The target in test [1] is T1, BA/F3-FLT3-ITD + D835Y cells (Homo sapiens, UniProt P36888, D835Y, cells depend on it, form not given).
T1 sequence (P36888 1-993 D835Y): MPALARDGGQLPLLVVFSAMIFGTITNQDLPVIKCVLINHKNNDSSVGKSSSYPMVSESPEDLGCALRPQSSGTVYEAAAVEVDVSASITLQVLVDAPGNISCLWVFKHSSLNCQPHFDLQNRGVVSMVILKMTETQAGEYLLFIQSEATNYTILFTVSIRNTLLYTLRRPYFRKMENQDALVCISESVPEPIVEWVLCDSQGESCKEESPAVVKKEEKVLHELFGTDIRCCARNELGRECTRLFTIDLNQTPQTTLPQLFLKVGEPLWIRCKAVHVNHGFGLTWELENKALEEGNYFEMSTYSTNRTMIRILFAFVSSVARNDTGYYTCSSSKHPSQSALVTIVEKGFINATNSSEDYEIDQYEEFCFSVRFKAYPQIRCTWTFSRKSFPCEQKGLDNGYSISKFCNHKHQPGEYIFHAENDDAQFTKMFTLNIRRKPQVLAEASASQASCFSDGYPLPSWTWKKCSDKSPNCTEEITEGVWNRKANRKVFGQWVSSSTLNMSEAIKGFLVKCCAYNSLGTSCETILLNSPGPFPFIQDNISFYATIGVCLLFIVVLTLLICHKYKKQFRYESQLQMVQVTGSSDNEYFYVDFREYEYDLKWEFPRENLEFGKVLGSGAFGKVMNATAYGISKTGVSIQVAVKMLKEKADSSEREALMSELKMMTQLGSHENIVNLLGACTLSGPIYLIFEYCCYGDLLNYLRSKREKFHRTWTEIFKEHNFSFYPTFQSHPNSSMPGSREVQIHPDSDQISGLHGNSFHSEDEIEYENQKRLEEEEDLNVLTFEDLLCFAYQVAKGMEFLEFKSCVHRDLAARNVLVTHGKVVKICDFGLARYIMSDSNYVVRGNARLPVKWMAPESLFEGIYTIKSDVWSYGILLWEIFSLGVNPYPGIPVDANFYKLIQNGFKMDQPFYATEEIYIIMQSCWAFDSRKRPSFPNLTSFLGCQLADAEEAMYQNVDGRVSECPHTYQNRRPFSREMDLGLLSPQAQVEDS
Briefly: Cell proliferation assay (CellTiter-Glo), engineered BA/F3 cells. Conditions: BaF3 FLT3 ITD/D835Y cells, 3d-Growth; read-out: BaF3_FLT3 ITD/D835Y 3d-Growth: IC50. It is filed as cell-based, murine. The gist of the method:
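Three-day growth at 37 °C, 5% CO2 under compound (1 μM top final, 1:3 dilutions, eight points, 0.2% DMSO), read as ATP luminescence by CellTiter-Glo for IC50. Cells: MOLM-14 with FLT3 ITD plus D835Y or F691L, and IL-3-deprived Ba/F3 transfected with FLT3 ITD/D835Y, 1×10^4 per well.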
(In general: ATP-based viability assays read luminescence as a measure of living cells.)

Test [2] has as its target T2, c-KIT (Homo sapiens, UniProt P10721).
T2 construct: purchased Millipore 14-559K
Briefly: AlphaScreen kinase assay with recombinant enzyme, c-KIT. The test is classed as biochemical. The note with it: 100ATP, 8pt, GMean. The gist of the method: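 Read-out: AlphaScreen proximity signal at 580 nm (680 nm excitation), lost as peptide tyrosine phosphorylation falls. Substrate Biotin-GG(EEEEY)10EE at 30 nM; IC50 runs at 10 μM (FLT3 mutants) or 100 μM (c-KIT) final. Donor beads 20 min, then acceptor beads 60 min, room temperature.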
On the technique in general: Bead proximity is the source of the signal in Alpha formats.

T2 sequence (P10721 26-976): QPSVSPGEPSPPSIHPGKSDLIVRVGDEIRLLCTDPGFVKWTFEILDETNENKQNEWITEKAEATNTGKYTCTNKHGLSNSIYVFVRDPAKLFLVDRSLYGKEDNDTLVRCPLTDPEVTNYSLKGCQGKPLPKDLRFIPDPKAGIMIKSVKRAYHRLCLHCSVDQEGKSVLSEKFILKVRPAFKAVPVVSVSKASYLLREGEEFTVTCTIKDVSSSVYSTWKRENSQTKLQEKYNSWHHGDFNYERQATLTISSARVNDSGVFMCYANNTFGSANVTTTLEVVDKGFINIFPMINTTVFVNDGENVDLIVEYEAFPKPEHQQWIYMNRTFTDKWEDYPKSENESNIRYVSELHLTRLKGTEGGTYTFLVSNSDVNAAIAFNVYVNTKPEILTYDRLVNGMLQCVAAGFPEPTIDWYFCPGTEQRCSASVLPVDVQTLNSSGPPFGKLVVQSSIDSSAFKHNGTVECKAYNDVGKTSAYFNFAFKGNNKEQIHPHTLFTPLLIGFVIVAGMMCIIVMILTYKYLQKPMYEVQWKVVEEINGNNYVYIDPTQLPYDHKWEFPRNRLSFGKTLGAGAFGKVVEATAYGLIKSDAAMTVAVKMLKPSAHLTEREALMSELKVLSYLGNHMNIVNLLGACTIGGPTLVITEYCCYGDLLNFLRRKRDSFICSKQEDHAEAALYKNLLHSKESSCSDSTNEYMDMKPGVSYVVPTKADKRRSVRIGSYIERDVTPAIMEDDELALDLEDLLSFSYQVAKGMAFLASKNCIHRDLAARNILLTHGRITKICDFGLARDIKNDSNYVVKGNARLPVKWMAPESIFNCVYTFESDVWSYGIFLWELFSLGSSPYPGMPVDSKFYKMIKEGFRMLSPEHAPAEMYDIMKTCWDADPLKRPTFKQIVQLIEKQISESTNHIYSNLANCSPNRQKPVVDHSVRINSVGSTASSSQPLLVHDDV

In the case of `c1ccc(-c2cc3cc(-c4ccc5[nH]nc(NC6CNC6)c5c4)cnc3[nH]2)cc1` [Compound P-0053, N-(azetidin-3-yl)-5-(2-phenyl-1H-pyrrolo[2,3-b]pyridin-5-yl)-1H-indazol-3-amine], in test [1], the GI50 lay within 0.0001 to 10 µM. Also, the IC50 in test [2] fell in the range of 0.0001 to 10 µM.

For the molecule `c1ccc(-c2cc3cc(-c4ccc5[nH]nc(NC6CCNCC6)c5c4)cnc3[nH]2)cc1` [Compound P-0056, 5-(2-phenyl-1H-pyrrolo[2,3-b]pyridin-5-yl)-N-(4-piperidyl)-1H-indazol-3-amine], the GI50 in test [1] lay within 0.0001 to 10 µM. For the same molecule, the IC50 in test [2] was in the range of 0.0001 to 10 µM.

For `N=C(N)N1CCN(C(=O)c2cccc(-c3cnc4[nH]c(-c5ccccc5)cc4c3)n2)CC1` [Compound P-0057, 4-[6-(2-phenyl-1H-pyrrolo[2,3-b]pyridin-5-yl)pyridine-2-carbonyl]piperazine-1-carboxamidine], in test [1], the GI50 fell in the range of 0.0001 to 10 µM. The IC50 in test [2] was 0.0001 to 10 µM.

For `c1ccc(-c2cc3cc(-c4ccc5[nH]nc(NC6CCNC6)c5c4)cnc3[nH]2)cc1` (stereo not shown) [Compound P-0059, 5-(2-phenyl-1H-pyrrolo[2,3-b]pyridin-5-yl)-N-pyrrolidin-3-yl-1H-indazol-3-amine], the GI50 in test [1] is 0.0001 to 10 µM. The IC50 in test [2] was 0.0001 to 10 µM.

`NC1CCCN(C(=O)c2cccc(-c3cnc4[nH]c(-c5ccccc5)cc4c3)n2)C1` (stereo not shown) [Compound P-0067, (3-amino-1-piperidyl)-[6-(2-phenyl-1H-pyrrolo[2,3-b]pyridin-5-yl)-2-pyridyl]methanone]: the GI50 in test [1] lay within 0.0001 to 10 µM. Moreover, the IC50 in test [2] was in the range of 0.0001 to 10 µM.

As for `O=C(c1cccc(-c2cnc3[nH]c(-c4ccccc4)cc3c2)n1)N1CCC(O)C1` (stereo not shown) [Compound P-0068, (3-hydroxypyrrolidin-1-yl)-[6-(2-phenyl-1H-pyrrolo[2,3-b]pyridin-5-yl)-2-pyridyl]methanone], the GI50 in test [1] was in the range of 0.0001 to 10 µM. In addition, the half-maximal inhibitory concentration (IC50) in test [2] lay within 0.0001 to 10 µM.

As for `O=C(c1cccc(-c2cnc3[nH]c(-c4ccccc4)cc3c2)n1)N1CCCC(O)C1` (stereo not shown) [Compound P-0069, (3-hydroxy-1-piperidyl)-[6-(2-phenyl-1H-pyrrolo[2,3-b]pyridin-5-yl)-2-pyridyl]methanone], the GI50 in test [1] was in the range of 0.0001 to 10 µM. Moreover, the IC50 in test [2] was in the range of 10 to 50 µM.

For `NC1CCN(C(=O)c2n[nH]c3ccc(-c4cnc5[nH]c(C6=CCN(C(=O)C7CC7)C6)cc5c4)cc23)CC1` [Compound P-0074, (4-amino-1-piperidyl)-[5-[2-[1-(cyclopropanecarbonyl)-2,5-dihydropyrrol-3-yl]-1H-pyrrolo[2,3-b]pyridin-5-yl]-1H-indazol-3-yl]methanone], the GI50 in test [1] lay within 0.0001 to 10 µM. The IC50 in test [2] lay within 10 to 50 µM.

`CNC1CCN(Cc2cccc(-c3cnc4[nH]c(-c5ccccc5)cc4c3)n2)C1` (stereo not shown) [Compound P-0087, N-methyl-1-[[6-(2-phenyl-1H-pyrrolo[2,3-b]pyridin-5-yl)-2-pyridyl]methyl]pyrrolidin-3-amine]: the GI50 in test [1] is 0.0001 to 10 µM. Also, the IC50 in test [2] is 0.0001 to 10 µM.

In the case of `O=C(c1cccc(-c2cnc3[nH]c(-c4ccccc4)cc3c2)n1)N1CCC(F)(F)CC1` [Compound P-0089, (4,4-difluoro-1-piperidyl)-[6-(2-phenyl-1H-pyrrolo[2,3-b]pyridin-5-yl)-2-pyridyl]methanone], the GI50 in test [1] fell in the range of 0.0001 to 10 µM. For the same molecule, the IC50 in test [2] fell in the range of 50 to 100 µM.

For the molecule `COC(=O)C1(C)CCN(C(=O)c2cccc(-c3cnc4[nH]c(-c5ccccc5)cc4c3)n2)CC1` [Compound P-0092, methyl 4-methyl-1-[6-(2-phenyl-1H-pyrrolo[2,3-b]pyridin-5-yl)pyridine-2-carbonyl]piperidine-4-carboxylate], in test [1], the GI50 was 0.0001 to 10 µM. Moreover, in test [2], the IC50 fell in the range of 50 to 100 µM.
